Laboratory results from patent publication US10252987B2, “Type of antiviral compound” (Institute of Medicinal Biotechnology, Chinese Academy of …, priority 2015, dated 2019).

System: HCV
Assay: anti-HCV activity assay in cell culture (HCV RNA by one-step quantitative RT-PCR)
Type: cell-based
Conditions: compound at 10 μmol/L, Huh7.5 cells infected with HCV virus particles, cultured 96 hrs, HCV RNA in cells vs virus control group; for inhibition at 10 µM: Hepatitis C virus, Huh7.5, 96 h, read-out: percent inhibition (%)
Method: The assay results of anti-HCV activity of the compound synthesized according to the present invention in cell culture are shown in Table 1, wherein the molecular weight is calculated by ChemBioDraw 12.0 software from the molecular structure of each compound.
100 μL Huh7.5 cells were seeded in 96-well cell culture plate to 1×10^5/mL density, cultured in an incubator at 37° C. under the condition of 5% CO2 and saturated humidity for 6 hrs. Huh7.5 cells were then infected by viral solution containing HCV virus particles, and solutions of compound of the present invention at a concentration of 10 μmol/L liquid were added respectively, cultured for further 96 hrs, and then total RNA was extracted from the cells. Amount of HCV RNA in cells was determined by one-step quantitative RT-PCR, and compared to RNA levels of the virus control group to calculate the inhibition rate of compounds on HCV.

Row | SMILES | percent inhibition (%) | inhibition at 10 µM [%]
1 | COc1ccc(N2CCN(Cc3cc(NCCN(C)C)ccc3C#N)CC2)cc1 [VI-1] | 99 | 
2 | COc1ccc(N2CCN(Cc3cc(NCN4CCCCC4)ccc3C#N)CC2)cc1 [VI-2, 4-(((piperidin-1-yl)methyl)amino)-2-(4-(4-methoxyphenyl)piperazin-1-yl)methylbenzonitrile] |  | 62
3 | COc1ccc(N2CCN(Cc3cc(N4CCN(C)CC4)ccc3C#N)CC2)cc1 [VI-3, 4-((4-methyl)piperazin-1-yl)-2-(4-(4-methoxyphenyl)piperazin-1-yl)methylbenzonitrile] |  | 91
4 | Cc1ccc(N2CCN(Cc3cc(N4CCN(C)CC4)ccc3C#N)CC2)cc1 [VI-4, 4-((4-methyl)piperazin-1-yl)-2-(4-(4-methylphenyl)piperazin-1-yl)methylbenzonitrile] |  | 98
5 | COc1ccc(N2CCN(Cc3cc(N4CCNCC4)ccc3C#N)CC2)cc1 [VI-5, 4-(piperazin-1-yl)-2-(4-(4-methoxyphenyl)piperazin-1-yl)methylbenzonitrile] |  | 79
6 | Cc1ccc(N2CCN(Cc3cc(N4CCNCC4)ccc3C#N)CC2)cc1 [VI-6, 4-(piperazin-1-yl)-2-(4-(4-methylphenyl)piperazin-1-yl)methylbenzonitrile] |  | 88
7 | Cc1ccc(N2CCN(Cc3cc(N4CCCC(N)C4)ccc3C#N)CC2)cc1 (stereo not shown) [VI-7, 4-(3-aminopiperidin-1-yl)-2-((4-(4-methylphenyl)piperazin-1-yl)methyl)benzonitrile] |  | 71
8 | N#Cc1ccc(N2CCNCC2)cc1CN1CCN(c2ccccc2)CC1 [VI-8, 4-(piperazin-1-yl)-2-(4-(4-phenyl)piperazin-1-yl)methylbenzonitrile] | 82 | 
9 | CN1CCN(c2ccc(C#N)c(CN3CCN(c4ccc(Cl)cc4)CC3)c2)CC1 [VI-9, 4-(4-methylpiperazin-1-yl)-2-(4-(4-chlorophenyl)piperazin-1-yl)methylbenzonitrile] |  | 92
10 | N#Cc1ccc(N2CCNCC2)cc1CN1CCN(c2ccc(Cl)cc2)CC1 [VI-10, 4-(piperazin-1-yl)-2-(4-(4-chlorophenyl)piperazin-1-yl)methylbenzonitrile] |  | 73
11 | Cc1ccc(N2CCN(Cc3cc(N4CCN(C)CC4)ccc3C#N)CC2)cc1C [VI-11, 4-(4-methylpiperazin-1-yl)-2-(4-(3,4-dimethylphenyl)piperazin-1-yl)methylbenzonitrile] |  | 80
12 | CN1CCN(c2ccc(C#N)c(CN3CCN(c4ccc(C5CCCCC5)cc4)CC3)c2)CC1 [VI-12, 4-(4-methylpiperazin-1-yl)-2-(4-(4-cyclohexylphenyl)piperazin-1-yl)methylbenzonitrile] |  | 86
13 | CN1CCN(c2ccc(C#N)c(CN3CCN(c4ccc(C(C)(C)C)cc4)CC3)c2)CC1 [VI-13, 4-(4-methylpiperazin-1-yl)-2-(4-(4-tert-butylphenyl)piperazin-1-yl)methylbenzonitrile] |  | 90
14 | CCc1ccc(N2CCN(Cc3cc(N4CCN(C)CC4)ccc3C#N)CC2)cc1 [VI-14, 4-(4-methylpiperazin-1-yl)-2-(4-(4-ethylphenyl)piperazin-1-yl)methylbenzonitrile] |  | 88
15 | Cc1cc(N2CCN(Cc3cc(N4CCNCC4)ccc3C#N)CC2)ccc1Cl [VI-15, 4-(piperazin-1-yl)-2-(4-(3-methyl4-chlorophenyl)piperazin-1-yl)methylbenzonitrile] |  | 95
16 | CC(C)c1ccc(N2CCN(Cc3cc(N4CCN(C)CC4)ccc3C#N)CC2)cc1 [VI-16, 4-(4-methylpiperazin-1-yl)-2-(4-(4-isopropylphenyl)piperazin-1-yl)methylbenzonitrile] |  | 68

Row | SMILES | percent inhibition (%) | inhibition at 10 µM [%]
17 | CSc1ccc(N2CCN(Cc3cc(N4CCN(C)CC4)ccc3C#N)CC2)cc1 [VI-17, 4-(4-methylpiperazin-1-yl)-2-(4-(4-(methylthio)phenyl)piperazin-1-yl)methylbenzonitrile] |  | 70
18 | CN1CCN(c2ccc(C#N)c(CN3CCN(c4ccc(Br)cc4)CC3)c2)CC1 [VI-18, 4-(4-methylpiperazin-1-yl)-2-(4-(4-bromophenyl)piperazin-1-yl)methylbenzonitrile] | 86 | 
19 | CN1CCN(c2ccc(C#N)c(CN3CCN(c4ccc(O)cc4)CC3)c2)CC1 [VI-19, 4-(4-methylpiperazin-1-yl)-2-(4-(4-hydroxylphenyl)piperazin-1-yl)methylbenzonitrile] |  | 67
20 | CNc1ccc(N2CCN(Cc3cc(N4CCN(C)CC4)ccc3C#N)CC2)cc1 [VI-20, 4-(4-methylpiperazin-1-yl)-2-(4-(4-methylaminophenyl)piperazin-1-yl)methylbenzonitrile] |  | 78
21 | CN1CCN(c2ccc(C#N)c(CN3CCN(c4ccc(N(C)C)cc4)CC3)c2)CC1 [VI-21, 4-(4-methylpiperazin-1-yl)-2-(4-(4-dimethylaminophenyl)piperazin-1-yl)methylbenzonitrile] |  | 65
22 | CN(C)CCN(C)c1ccc(C#N)c(CN2CCN(c3ccc(N4CCCC4)cc3)CC2)c1 [VI-22, 4-((2-(dimethylamino)ethyl)(methyl)amino)-2-(4-(4-(pyrrolidin-1-yl)phenyl)piperazin-1-yl)methylbenzonitrile] |  | 83
23 | Cc1cc(C2CCN(Cc3cc(N4CCN(C)CC4)ccc3C#N)CC2)ccc1C#N [VI-23, 4-(4-methylpiperazin-1-yl)-2-(4-(3-methyl-4-cyanophenyl)piperidin-1-yl)methylbenzonitrile] |  | 77
24 | CN1CCN(c2ccc(C#N)c(CN3CCN(c4ccc(C5CCCC5)cc4)CC3)c2)CC1 [VI-24, 4-(4-methylpiperazin-1-yl)-2-(4-(4-cyclopentylphenyl)piperazin-1-yl)methylbenzonitrile] |  | 59
25 | COc1ccc(N2CCN(Cc3cc(N4C(C)CNCC4C)ccc3C#N)CC2)cc1 (stereo not shown) [VI-25] | 67 | 
26 | Cc1ccc(N2CCN(Cc3cc(NCCCN(C)C)ccc3C#N)CC2)cc1 [VI-26, 4-(N′,N′-dimethyl-1,3-propanediamin-1-yl)-2-(4-p-methylphenylpiperazin-1-yl)methylbenzonitrile] | 58 | 
27 | CN(C)CCCNc1ccc(C#N)c(CN2CCN(c3ccccc3)CC2)c1 [VI-27, 4-(N′,N′-dimethyl-1,3-propanediamin-1-yl)-2-(4-phenylpiperazin-1-yl)methylbenzonitrile] | 60 | 
28 | CN(C)CCNc1ccc(C#N)c(CN2CCN(c3ccc(C(F)(F)F)cc3)CC2)c1 [VI-28, 4-(N′,N′-dimethyl-1,2-ethylenediamin-1-yl)-2-(4-p-trifluoromethylphenyl-piperazin-1-yl)methylbenzonitrile] | 79 | 
29 | CN(C)CCCNc1ccc(C#N)c(CN2CCN(c3ccc(Cl)cc3)CC2)c1 [VI-29, 4-(N′,N′-dimethyl-1,3-propanediamin-1-yl)-2-(4-p-chlorophenylpiperazin-1-yl)methylbenzonitrile] | 80 | 
30 | COc1ccc(N2CCN(Cc3cc(NCCN(C)C)ccc3C#N)CC2)cc1 [VI-30, 4-(N′,N′-dimethyl-1,2-ethylenediamin-1-yl)-2-(4-p-methoxyphenylpiperazin-1-yl)methylbenzonitrile] | 66 | 
31 | COc1ccc(N2CCN(Cc3cc(N(C)CCN(C)C)ccc3C#N)CC2)cc1 [VI-31, 4-(N,N′,N′-trimethyl-1,2-ethylenediamin-1-yl)-2-(4-p-methoxyphenylpiperazin-1-yl)methylbenzonitrile] | 91 | 
